{
  "source": "patent US10537643B2",
  "about": "“Chemoembolization composition comprising anti-angiogenic agents” (CENTRE HOSPITALIER UNIVERSITAIRE VAUDOIS, priority 2010, dated 2020)",
  "key": {"[1]": {"assay": "Stability / precipitation of sunitinib solutions", "type": "physicochemical", "text": "However, preparing drug-loaded beads is not a straightforward procedure, especially if they should be loaded with chemotherapeutic agents of low solubility in aqueous media. This solubility can be insufficient to reach useful therapeutic dose, such as for sorafenib tosylate. In the case where apparent solubility is sufficient to reach useful therapeutic dose, it may appear that some delayed precipitation occurs; making impossible the utilization of such preparation in a clinic setup. For example, sunitinib base or malate can be dissolved in standard media used for loading anthracycline drugs, such as doxorubicine. […] In addition, no liquid oral or parenteral solution of any sunitinib salt is commercially available, that could be used to load DEBs. […] WO 2007/090897 further discloses a method for loading beads with water insoluble chemotherapeutic agents by using organic solvents. However, such an approach is not adequate for extemporaneous preparation by the medical staff.\nAdvantageously, this solution is isotonic to human plasma and it is safe for the parenteral applications. Noteworthy, the sugar is not limited to glucose. Other sugars or polyol could be used such as sucrose, dextran, mannitol, sorbitol or trehalose."}, "[2]": {"conditions": "sunitinib per os, unique dose of 6 mg, rabbit; according to previous pharmacological studies (FDA); cited from earlier work"}, "[3]": {"conditions": "cited from earlier work"}, "[4]": {"assay": "Liver enzymes after administration in healthy rabbits", "conditions": "sunitinib p.o., unique dose of 6 mg, healthy rabbit", "method": "Adult healhy male New Zealand White Rabbits (n=12) weighing between 3.2-2.8 kgs were used.\nDC Beads measuring between 100-300 μm (Biocompatibles) were used.\nAnimals were separated in 3 groups.\nLiver enzymes were measured from blood samples obtained by a catheter placed in the vein of the rabbit's ear, immediately before embolization or oral administration of the drug and 6 hours."}},
  "data": [
    {"smiles": "CCN(CC)CCNC(=O)c1c(C)[nH]c(/C=C2\\C(=O)Nc3ccc(F)cc32)c1C", "note": "[sunitinib]", "values": [
      {"measurement": "stability of the drug", "setting": "[1]; HPLC analysis, sunitinib loaded DC beads preparation", "result": "verified"},
      {"measurement": "stability of sunitinib solution (precipitation)", "setting": "[1]; in presence of sugar, 5% glucose, in contrast to saline or hydrochloric acid solutions", "result": "stable, without any precipitation"},
      {"measurement": "therapeutic plasmatic concentration (Cmax)", "setting": "[2]", "result": "45 to 55", "unit": "ng/mL"},
      {"measurement": "plasma concentrations", "setting": "[3]; approved starting oral dose 50 mg/day", "result": "at least 50 ng/ml"},
      {"measurement": "patients with serious (grade 3 or 4) adverse events", "setting": "[3]; oral sunitinib therapy", "result": "≤ 10", "unit": "%"},
      {"measurement": "patients requiring dose reductions", "setting": "[3]; patients treated for RCC", "result": 50, "unit": "%"},
      {"measurement": "liver enzymes", "setting": "[4]", "result": "did not cause any alteration"}
    ]},
    {"smiles": "CCN(CC)CCNC(=O)c1c(C)[nH]c(/C=C2\\C(=O)Nc3ccc(F)cc32)c1C", "note": "[sunitinib malate]", "values": [
      {"measurement": "precipitation in solution", "setting": "[1]; standard media used for loading anthracycline drugs", "result": "precipitate within a short period of time"}
    ]}
  ]
}
